In patent US20140134139A1, “CD34+ CELLS AND METHODS OF USE” (NORTHWESTERN UNIVERSITY, priority 2012, published 2014):

Columns and labels:
[1] = tested on: murine endothelial cells (SVEC); test: Western blot of histone acetylation and methylation in SVEC cells; assay type: cell-based, mouse; settings: 1 μM BIX-01294, compared to untreated control cells
Procedure: Cell lysate from 1.5×10^7 SVEC cells was prepared using whole cell lysate buffer (50 mM Tris-HCl, 0.5% Igepal (NP-40), 150 nM NaCl). […] Equal protein loading in each lane was verified using antibodies against β-actin and changes in modified histone levels were quantified by first normalization to total H3 or H4 protein.
Therefore, murine endothelial cells (SVEC) were treated with either 1 μM BIX-01294 or staggered addition of 1 mM VPA then 500 nM 5′-Azacytidine for 48 h and histone acetylation and methylation were assessed by western blot.

Lineage-Sca-1+CD31+ EPCs [2] = test: Real-time PCR gene expression in drug-treated sorted mouse EPCs; assay type: cell-based
Procedure: Relative mRNA expression of target genes was normalized to the endogenous 18S control gene.
Lineage-Sca-1+CD31+ EPCs were cultured on 5 μg/mL human fibronectin coated plates in DMEM supplemented with 10% FBS and penicillin/streptomycin at 37° C. with 5% CO2. Human CD34+ cells were cultured in X-VIVO (Lonza) media supplemented with 0.5% human serum albumin, 50 ng/mL Flt3 ligand, 20 ng/mL stem cell factor, 50 ng/mL VEGF, and 10 ng/mL thrombopoietin. Either cell type was treated with VPA (2.5 mM) for 24 hours then 500 nM 5′ Aza was added to the culture media and cells remained in culture for an additional 24 hours (48 hours total). Different ranges of doses were tested with above doses being determined as the optimal doses not only for reprogramming but also for displaying minimal cellular toxicity. Further, a staggered treatment protocol, that is, contacting an EPC culture with a first epigenetic programming agent (for example, VPA) for a first period of time (for example, 24 hr), followed by contacting the EPC culture with a second epigenetic programming agent (for example, 5′-Aza) for a second period of time (for example, 24 hr) was determined to be a highly preferred protocol for reprogramming. Mouse EPCs were also cultured with 1 μM BIX-01294 for 48 hours in the same culture conditions. […]

Lineage-Sca-1+CD31+ EPCs [3] = test: Cell viability analysis of drug-treated mouse EPCs; assay type: cell-based; settings: 500 nM 5′ Aza, 1 mM VPA, 1 mM BIX-01294; 48 hours; data not shown
Procedure: In an attempt to increase their plasticity, 2.0×10^5 sorted EPCs were seeded on fibronectin coated plates then treated for 48 hours with individual or combinations of epigenetic modifying agents; 500 nM 5′-Azacytidine (5′ Aza; DNA methyltransferase inhibitor), 1 mM valproic acid (VPA; histone deacetylase inhibitor), […] (histone methyltransferase inhibitor). Drug dosages were verified as non-toxic by cell viability analysis (data not shown). […] All mRNA expression was normalized to 18S RNA then presented as a fold difference compared to untreated EPCs. […] Since the treated cells express cardiomyocyte genes at basal level they may be more inclined to differentiate into mature CMCs under conditions conducive for CMC differentiation. Similar changes in gene expression were found in human CD34+ cells with the regimen of 2.5 mM VPA followed by 500 nM 5′ Aza (FIG. 2A). BIX-01294 treatment, even at reduced doses, was toxic to human CD34+ cells and was therefore not used in human cell studies.

human CD34+ cells = test: Toxicity to human CD34+ cells; assay type: cell-based; settings: similar drug doses as for mouse EPCs and even 2-fold reduced levels
Procedure: In an attempt to increase their plasticity, 2.0×10^5 sorted EPCs were seeded on fibronectin coated plates then treated for 48 hours with individual or combinations of epigenetic modifying agents; 500 nM 5′-Azacytidine (5′ Aza; DNA methyltransferase inhibitor), 1 mM valproic acid (VPA; histone deacetylase inhibitor), 1 mM BIX-01294 (histone methyltransferase inhibitor). Drug dosages were verified as non-toxic by cell viability analysis (data not shown). […] All mRNA expression was normalized to 18S RNA then presented as a fold difference compared to untreated EPCs. […]
The epigenetic reprogramming by these small molecules was evaluated in human CD34+ cells to determine whether their reprogramming potential is limited to mouse EPCs or whether it can also be translated to human EPCs (bone marrow mobilized CD34+ cells), currently used in clinical trials (Losordo D W et al., Circ. Res. 109:428-436 (2011)). CD34+ cells, obtained from healthy donors and provided by Baxter healthcare, were treated or not with VPA (2.5 mM) and 5′ Aza (500 nM) and mRNA expression of pluripotency and cardiomyocyte-specific transcripts was determined. […] In order to determine enhanced functional capacity of reprogrammed CD34+ cells in the repair of post-infarct myocardium, a previously determined sub-therapeutic dose of 2.5×10^4 cells was used for post-AMI transplantation in immune-e-deficient mouse AMI model. […]

Nkx2.5 promoter = test: Pyrosequencing methylation analysis of the Nkx2.5 promoter in SVECs; assay type: cell-based, mouse; settings: treated vs control SVEC cells
SVEC cells = test: ChIP assay of acetylated H3K9 at Oct4 and cardiomyocyte gene promoters in SVEC cells; assay type: cell-based, mouse; settings: p<0.05

SMILES	reduction of H3K9 di-methylation [1]	induction of cardiomyocyte-specific transcripts (Lineage-Sca-1+CD31+ EPCs [2]; real-time PCR immediately after treatment, without cardiomyocyte differentiation conditions)	Oct4 expression, fold difference compared to untreated EPCs (Lineage-Sca-1+CD31+ EPCs [2]; real-time PCR, normalized to 18S RNA, 48 hours with 1 mM BIX-01294, or 24 hours 1 mM VPA then 24 hours 500 nM 5′ Aza)	toxicity of drug dosages by cell viability analysis (Lineage-Sca-1+CD31+ EPCs [3])	toxicity to human CD34+ cells (human CD34+ cells)	CpG methylation patterns of Nkx2.5 (Nkx2.5 promoter)	acetylated H3K9 bound to cardiac-specific gene promoters (Actn2, Ryr2, TnnT2) (SVEC cells; compared to non-treated cells)	acetylated H3K9 bound to the core (CP) and regulatory promoter (RP) regions of Oct4 (SVEC cells; compared to untreated controls)
COc1cc2nc(N3CCCN(C)CC3)nc(NC3CCN(Cc4ccccc4)CC3)c2cc1OC [BIX-01294]	64.3±11%	de novo induction of cardiomyocyte-specific transcripts	9.5±2.0 fold	non-toxic	toxic	no significant difference	more heavily bound by acetylated H3K9	significant increase
CCCC(CCC)C(=O)O [VPA, valproic acid]				non-toxic				
